Series [1] is described as follows: Tariquidar plasma concentration (LC/MS). It is filed as in vivo. To be noted: Sprague-Dawley, rat, intravenous, 15 mg/kg, 2 hours after tariquidar 15 mg/kg i.v., mean ± s.d.
Series [2] in a line: Population mixed effects modelling (NONMEM) of (R)-[11C]verapamil plasma kinetics. Conditions: tariquidar 15 mg/kg i.v. co-administration vs vehicle.
Description: Plasma time-activity curves were corrected for tracer metabolism before they were used as input for kinetic modelling. […] Two types of corrections were used: (1) complete metabolite correction and (2) correction only for polar metabolites. […] Mathematically, this is described by the following equations:
Nonlinear mixed effects modelling, using NONMEM VI (GloboMax LLC, Hanover, MD, USA), provide a tool for analyzing repeated measurements data in which the relationship between the explanatory and response variables can be modeled as a single function, allowing the parameters to differ between individuals. In addition, these techniques recognize that the variability associated with the response variable for a given individual may depend on the response value in a way that is similar for all individuals. This could be due, for example, to properties associated with measurement error.
Data from all rats was processed simultaneously. The subroutine ADVAN 9 and first-order conditional estimation with interaction were used throughout the modelling procedure. […]
(§1) The NONMEM model was constructed in two steps. […] One, two and three compartment models were evaluated. […] Again, one and two compartment models were evaluated, and treatment, rat group and animal weight were included as covariates. […]
Series [3] in a line: 18FDG brain uptake (PET). The class given is in vivo, rat. Conditions: 60 minutes after injection. The text has this: No post-reconstruction filtering was applied.
Series [4] concerns P-glycoprotein (P-gp). Put plainly: P-gp expression in brain capillaries (immunohistochemistry, C219). It is filed as in vivo, rat. Conditions: kainate vs saline treated rats, 7 days after treatment; cortex and hippocampus CA1.
Series [5] has as its system P-glycoprotein (P-gp) at the blood-brain barrier. Briefly: Population mixed effects modelling (NONMEM) of (R)-[11C]verapamil brain kinetics.
Protocol: Rats from the different groups were randomly assigned to experimental days and scanned in pairs for 60 minutes using a double LSO/LYSO layer High Resolution Research Tomograph (HRRT, CTI/Siemens, Knoxville, TN, USA) [37]. […] The other half was treated only with vehicle (3 mL/kg). […] The purpose of the ^18FDG scan was to outline the brain to aid in defining regions of interest. The HRRT scanner acquires data in list mode, enabling post-scan definition of the frame sequence. The final frame sequence used for analysis was 6 × 10, 2 × 30, 3 × 60, 2 × 150, 2 × 300 and 4 × 600 seconds. Studies were reconstructed using an iterative 3 D ordered-subsets weighted least-squares (3D-OSWLS) method with 8 iterations and 16 subsets [39]. No post-reconstruction filtering was applied. […]
PET image data were analyzed using the freely available software package Amide 0.8.22 [44]. […] To correct for an intravascular contribution, radioactivity measured in whole blood was exponentially interpolated to obtain blood radioactivity values at each mid frame time point and then subtracted from the brain time-activity curves, assuming that cerebral blood volume was 3% of the total brain volume [45]. […]
as §1
For series [6], the system named is Sprague-Dawley rats. Briefly: Kainate-induced status epilepticus. The class given is in vivo, rat. The procedure: Adult male Sprague-Dawley rats (n = 50, Harlan, Horst, The Netherlands) weighing 200-224 g at arrival were housed in groups of 5-6 per cage until treatment. They were kept at a constant temperature of 21°C and at a 12 h light/dark cycle, in which lights were switched on at 8:00 AM. Animals had unrestricted access to food (Teklad Global 16% Protein Rodent Diet, Harlan, Madison, WI, USA) and water. Animal procedures were performed in accordance with Dutch laws on animal experimentation. All experiments were approved by the Ethics Committee for Animal Experiments of Leiden University (approval number UDEC08178). After approximately one week of habituation and 7 days prior to PET investigation rats were treated with either kainic acid (5 mg/mL) or saline. Kainic acid was administered repeatedly as a 10 mg/kg (2 mL/kg) i.p. injection followed by 5 mg/kg (1 mL/kg) i.p. every 30-60 minutes until stage IV seizures according to Racine's scale occurred, or when a total amount of 30 mg/kg kainic acid was reached. Control rats were treated with 3 saline i.p. injections using the same volumes as for the kainate treated rats, 30 minutes apart. After treatment rats were housed individually.

A value given as a limit tells only on which side of the number the result lay.

As for `COc1cc2c(cc1OC)CN(CCc1ccc(NC(=O)c3cc(OC)c(OC)cc3NC(=O)c3cnc4ccccc4c3)cc1)CC2` [tariquidar, Tariquidar], the figures for the concentration at 2 h in series [1] (kainate group) and in series [1] (saline group) were 1600 ± 300 ng/mL and 1800 ± 300 ng/mL, respectively. In addition, the “Covariate tariquidar on Vp1 of (R)-[11C]verapamil (fractional difference)” value in series [2] was 1.20 (0.119).

On to `O=C[C@H]([18F])[C@@H](O)[C@H](O)[C@H](O)CO` [^18FDG], for which the “18FDG brain uptake, SUV” value was found to be 2.0 ± 0.4 in series [3] (kainate treated rats, mean ± s.d.); 1.6 ± 0.3 in series [3] (saline treated rats, mean ± s.d.); 1.8 ± 0.4 in series [3] (with or without tariquidar co-administration (both groups)).

Turning to `C=C(C)[C@H]1CN[C@H](C(=O)O)[C@H]1CC(=O)O` [kainic acid], in series [4], the “P-gp expression, P-gp labelled surface area” value is listed as “trend towards higher P-gp expression” and the “P-gp expression, optical density” value is recorded as “no difference”. Moreover, the “Covariate kainate on Vbr1 of (R)-[11C]verapamil (fractional difference)” value in series [5] (kainate vs saline treated rats, 7 days after treatment) is listed as 1.32 (0.416). Also, the “increase of Vbr1 of (R)-[11C]verapamil in kainate treated compared to saline treated rats” value in series [5] (population model, rat group as covariate, 7 days after kainate) turned out to be 32%. In series [6] (after kainic acid i.p.), this compound had a duration of seizures of 1 to 2 h. Also, the “seizure stage reached (Racine's scale)” value in series [6] (kainic acid i.p. 10 mg/kg then 5 mg/kg every 30-60 minutes, all rats, except one) was “stage IV-V seizures”. In series [6] (kainic acid i.p., up to 30 mg/kg), the “rats that died as a result of treatment” value was “Four”. The “time to status epilepticus after the last injection” value in series [6] (typically 3 injections, i.e. 20 mg/kg i.p.) is not above 20 min.
